Measurements from publication PMC6450558 (Angewandte Chemie (International ed. in English), 2019).

Target: T1, human ST6Gal-I (Homo sapiens, UniProt P15907)
T1 sequence (P15907 1-406): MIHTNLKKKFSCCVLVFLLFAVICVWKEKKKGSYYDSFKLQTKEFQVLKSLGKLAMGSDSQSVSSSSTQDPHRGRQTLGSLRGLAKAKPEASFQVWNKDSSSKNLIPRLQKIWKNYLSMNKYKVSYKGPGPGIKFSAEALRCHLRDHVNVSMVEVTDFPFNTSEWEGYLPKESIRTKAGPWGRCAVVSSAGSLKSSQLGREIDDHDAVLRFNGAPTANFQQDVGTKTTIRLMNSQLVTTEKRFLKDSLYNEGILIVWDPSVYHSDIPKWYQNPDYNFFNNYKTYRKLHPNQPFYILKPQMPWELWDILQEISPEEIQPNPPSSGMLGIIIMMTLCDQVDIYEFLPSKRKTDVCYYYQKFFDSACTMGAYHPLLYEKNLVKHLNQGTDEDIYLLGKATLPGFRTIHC
Assay: sialyltransferase kinetics, donor varied
Assay type: biochemical
Details: read-out: ST6Gal-I / KM(app); acceptor LacNAc-butyl (11), fixed concentration

Km: 86 ± 21 µM
Substance: CMP-Neu9NSydCl [compound 9]
